Results taken from patent US6893846B2, “Primers for use in detecting beta-lactamases” (priority 1998, dated 2005).
Values after ≈ are worked out from the molar mass of the structure shown. Like-named read-outs stand apart in the source and are kept apart here.

Assays:
K. pneumoniae 225 [1] = assay: NCCLS microdilution susceptibility test; format: cell-based, Klebsiella pneumoniae; details: Klebsiella pneumoniae, 225
[2] = test system: E. coli C600 transconjugant; details: disk diffusion, Tc = transconjugate E. coli C600
E. coli = assay: Agar dilution MIC, South African isolates; format: cell-based, Escherichia coli; details: tzp with tazobactam 4 μg/ml
Source text: The strains were provided in response to a request for all strains of Enterobacteriaceae, lacking inducible beta-lactamases, that were intermediate or resistant to cefotaxime or ceftazidime. […]

K. pneumoniae 225 [3] = assay: NCCLS disk diffusion assay; format: cell-based, Klebsiella pneumoniae; details: disk diffusion, Kleb 225
[4] = test system: beta-lactamases in sonic extracts of E. aerogenes; assay: Isoelectric focusing overlay: cefotaxime hydrolysis, inhibitors, induction; details: 0.75 μg/ml cefotaxime
[5] = target: beta-lactamases in sonic extracts of K. pneumoniae (Klebsiella pneumoniae, UniProt P0AD64, E235K/G234S); details: Kpn2, beta-lactamase pI 8.2 (SHV-5); 0.75 μg/ml cefotaxime
[6] = target: beta-lactamases in sonic extracts of K. pneumoniae (Klebsiella pneumoniae, UniProt P0AD64); details: Kpn1, beta-lactamase pI 7.6 (SHV-1); 0.75 μg/ml cefotaxime
[7] = target: beta-lactamases in sonic extracts of K. pneumoniae (Escherichia coli, UniProt P62593); details: 0.75 μg/ml cefotaxime
[8] = test system: beta-lactamases in sonic extracts of K. pneumoniae; details: 0.75 μg/ml cefotaxime
[9] = target: beta-lactamases in sonic extracts of E. coli (Escherichia coli, UniProt P62593); assay: Isoelectric focusing overlay: cefotaxime hydrolysis and inhibitors; details: 0.75 μg/ml cefotaxime
[10] = test system: beta-lactamases in sonic extracts of E. coli; assay: as above; details: 0.75 μg/ml cefotaxime

Chain of beta-lactamases in sonic extracts of K. pneumoniae (Escherichia coli, UniProt P62593) (P62593 24-286 limits assumed): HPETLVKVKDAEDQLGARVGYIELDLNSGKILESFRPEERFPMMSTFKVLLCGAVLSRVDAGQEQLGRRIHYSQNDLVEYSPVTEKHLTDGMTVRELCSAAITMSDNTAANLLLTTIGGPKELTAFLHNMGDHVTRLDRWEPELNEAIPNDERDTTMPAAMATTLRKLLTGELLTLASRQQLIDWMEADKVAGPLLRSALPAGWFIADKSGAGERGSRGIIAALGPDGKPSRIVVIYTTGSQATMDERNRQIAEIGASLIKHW
Chain of beta-lactamases in sonic extracts of E. coli (Escherichia coli, UniProt P62593) (P62593 24-286 limits assumed): as above

## CO/N=C(\C(=O)N[C@@H]1C(=O)N2C(C(=O)O)=C(COC(C)=O)CS[C@H]12)c1csc(N)n1 [cefotaxime]
K. pneumoniae 225 [1]
  MIC: 16 µg/mL (≈ 35.1 µM)
[2]
  Zone Size: 12 mm
E. coli; resistance phenotype Ec1, 3 strains
  MIC range: 1 µg/mL
E. coli; resistance phenotype Ec2, 1 strain
  MIC range: 16 µg/mL
K. pneumoniae 225 [3]
  Zone Size: 15 mm
[4]; SHV-3 strain (1), Bush group 1 enzyme pI 8.3
  Ctx Hydrolysis: no
[4]; SHV-3 strain (1), Bush group 2be enzyme pI 6.9
  Ctx Hydrolysis: yes
[4]; SHV-4 strains (29), Bush group 1 enzyme pI 8.3
  Ctx Hydrolysis: no
[4]; SHV-4 strains (29), Bush group 2be enzyme pI 7.8
  Ctx Hydrolysis: yes
[4]; SHV-5 strain (1), Bush group 1 enzyme pI 8.3
  Ctx Hydrolysis: no
[4]; SHV-5 strain (1), Bush group 2Be enzyme pI 8.0
  Ctx Hydrolysis: yes
[5]
  ctx hydrolysis: Yes
[6]
  ctx hydrolysis: No
[7]; Kpn2, beta-lactamase pI 5.4 (TEM-1)
  ctx hydrolysis: No
[7]; Kpn3, beta-lactamase pI 5.4 (TEM-1)
  ctx hydrolysis: No
[8]; Kpn1, beta-lactamase pI 5.6 (TEM-10 or 26)
  ctx hydrolysis: Yes
[8]; Kpn2, beta-lactamase pI 7.6 (SHV-2 or 8)
  ctx hydrolysis: Yes
[8]; Kpn3, beta-lactamase pI 8.0 (AmpC)
  ctx hydrolysis: Yes
[9]; Ec1, beta-lactamase pI 5.4 (TEM-1)
  ctx hydrolysis: No
[9]; Ec2, beta-lactamase pI 5.4 (TEM-1)
  ctx hydrolysis: No
[10]; Ec1, beta-lactamase pI 5.6 (TEM-10 or 26)
  ctx hydrolysis: Yes
[10]; Ec2, beta-lactamase pI 7.6 (SHV-2 or 8)
  ctx hydrolysis: Yes
